Active and inactive are the calls of the source.
What was measured:
[1] = biological target: Dual specificity protein phosphatase 3 (Homo sapiens, UniProt P51452); test: SAR VHR1 Fluorescent Assay for In Vitro dose response studies Set 3. [Related pubchem assays (depositor defined):AID1654, AID1661, AID1878]; format: functional
[2] = inhibitors of intracellular T. cruzi replication, confirmation, NIH3T3 host cells, beta-gal luminescence (AID 2044); format: functional, cell-based;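 further: intracellular parasites grown in NIH/3T3 mouse fibroblasts as host cells; luminescent beta-galactosidase reporter signal from transgenic T. cruzi replicating inside host cells; inhibitors lower the luminescence signal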
[3] = cytotoxicity toward NIH3T3 fibroblasts, dose response, counter-screen, cell-based, ATP luminescence, mouse fibroblasts (AID 2010); format: functional;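 further: cells exposed to compound for about 90 hours before reading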
[4] = biological target: T1, CAAX prenyl protease 2 (Saccharomyces cerevisiae S288c, UniProt Q03530); format: biochemical
T1 sequence (Q03530 whole entry): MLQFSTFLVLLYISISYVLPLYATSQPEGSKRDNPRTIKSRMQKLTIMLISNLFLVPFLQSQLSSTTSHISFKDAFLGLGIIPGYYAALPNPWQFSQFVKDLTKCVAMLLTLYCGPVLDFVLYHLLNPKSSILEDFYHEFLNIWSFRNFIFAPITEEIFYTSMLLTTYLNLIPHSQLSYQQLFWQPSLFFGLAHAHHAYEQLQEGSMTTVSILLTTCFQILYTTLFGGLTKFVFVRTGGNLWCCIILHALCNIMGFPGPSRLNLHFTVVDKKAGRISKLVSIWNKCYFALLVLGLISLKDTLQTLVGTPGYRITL

[5] = biological target: Delta-type opioid receptor (Homo sapiens, UniProt P41143); test: Counterscreen for agonists of heterodimerization of the mu 1 (OPRM1) and delta 1 (OPRD1) opioid receptors: Luminescence-based cell-based high throughput dose response assay to identify agonists of OPRD1 homodimerization. [Related pubchem assays (depositor defined):AID504326, AID504355, AID504692, AID504904, AID504905]; format: functional
Chain of Delta-type opioid receptor (P41143 whole entry): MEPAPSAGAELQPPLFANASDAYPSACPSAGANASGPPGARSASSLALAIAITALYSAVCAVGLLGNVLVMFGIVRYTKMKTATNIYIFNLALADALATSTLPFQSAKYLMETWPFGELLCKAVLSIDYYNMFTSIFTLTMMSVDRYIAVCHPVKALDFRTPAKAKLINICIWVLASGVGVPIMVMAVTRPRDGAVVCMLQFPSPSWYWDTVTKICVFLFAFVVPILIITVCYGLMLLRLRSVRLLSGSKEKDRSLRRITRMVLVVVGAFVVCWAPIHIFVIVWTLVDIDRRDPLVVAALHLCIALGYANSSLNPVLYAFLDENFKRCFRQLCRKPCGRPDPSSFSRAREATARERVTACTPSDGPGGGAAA

[6] = biological target: Mu-type opioid receptor (Homo sapiens, UniProt P35372); test: Counterscreen for agonists of heterodimerization of the mu 1 (OPRM1) and delta 1 (OPRD1) opioid receptors: Luminescence-based cell-based high throughput dose response assay to identify agonists of OPRM1 homodimerization.; format: functional;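 further: U2OS cells expressing OPRM1 and beta-arrestin as split beta-galactosidase partners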
Chain of Mu-type opioid receptor (P35372 whole entry): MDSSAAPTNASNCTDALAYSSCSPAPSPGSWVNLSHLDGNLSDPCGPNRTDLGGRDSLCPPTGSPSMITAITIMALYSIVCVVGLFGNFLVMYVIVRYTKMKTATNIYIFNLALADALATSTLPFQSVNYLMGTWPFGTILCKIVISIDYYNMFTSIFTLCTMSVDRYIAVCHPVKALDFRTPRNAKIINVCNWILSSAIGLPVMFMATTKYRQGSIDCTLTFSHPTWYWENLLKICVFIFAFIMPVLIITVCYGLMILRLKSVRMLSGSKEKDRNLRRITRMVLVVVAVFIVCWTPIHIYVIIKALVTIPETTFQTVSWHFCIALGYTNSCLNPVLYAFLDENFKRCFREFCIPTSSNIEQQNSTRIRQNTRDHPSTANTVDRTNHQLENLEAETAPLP

[7] = biological target: 5-hydroxytryptamine receptor 5A (Homo sapiens, UniProt P47898); test: Counterscreen for agonists of OPRM1-OPRD1 heterodimerization: luminescence-based cell-based high throughput dose response assay to identify agonists of 5-hydroxytryptamine (serotonin) 5A receptor (HTR5A). [Related pubchem assays (depositor defined):AID504326, AID504355, AID504692, AID504904, AID504905]; format: functional
Chain of 5-hydroxytryptamine receptor 5A (P47898 whole entry): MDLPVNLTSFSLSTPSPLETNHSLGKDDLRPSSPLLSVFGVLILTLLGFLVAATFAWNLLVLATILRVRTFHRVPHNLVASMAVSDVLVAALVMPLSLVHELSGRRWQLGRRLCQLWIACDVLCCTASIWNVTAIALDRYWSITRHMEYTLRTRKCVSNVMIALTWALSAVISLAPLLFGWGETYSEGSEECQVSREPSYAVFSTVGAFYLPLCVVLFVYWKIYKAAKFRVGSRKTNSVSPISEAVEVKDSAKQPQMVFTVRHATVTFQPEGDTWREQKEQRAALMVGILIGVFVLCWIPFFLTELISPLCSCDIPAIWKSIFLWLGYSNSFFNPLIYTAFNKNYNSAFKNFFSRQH

[8] = biological target: CAAX prenyl protease 2 (Homo sapiens, UniProt Q9Y256); test: human Rce1 protease inhibitors, dose response, biochemical, yeast membranes, quenched-peptide fluorescence, cherry-pick (AID 588849)
Chain of CAAX prenyl protease 2 (Homo sapiens, UniProt Q9Y256) (Q9Y256 whole entry): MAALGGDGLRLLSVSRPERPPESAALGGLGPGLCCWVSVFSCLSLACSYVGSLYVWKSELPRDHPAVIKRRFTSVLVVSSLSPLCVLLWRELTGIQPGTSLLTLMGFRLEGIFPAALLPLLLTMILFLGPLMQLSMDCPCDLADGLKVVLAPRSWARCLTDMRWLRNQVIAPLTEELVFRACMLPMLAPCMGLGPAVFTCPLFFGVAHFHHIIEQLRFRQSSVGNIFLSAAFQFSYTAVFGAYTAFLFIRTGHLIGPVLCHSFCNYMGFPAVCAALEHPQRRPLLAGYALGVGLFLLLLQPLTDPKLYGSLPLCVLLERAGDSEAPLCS

[9] = Luminescence Cell-Based Dose Retest to Confirm Inhibitors of Cancer Stem Cells. [Related pubchem assays (depositor defined):AID2717, AID2721]; format: functional; settings: Homo sapiens
[10] = cytotoxicity in HMLE control line with eGFP shRNA, dose response, counter-screen for HMLE_sh_ECad selective toxicity project, cell-based, HMLE_sh_eGFP, luminescence (AID 463074); format: functional, Homo sapiens;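 further: HMLE human mammary epithelial cells expressing control shRNA against eGFP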
[11] = biological target: Beta-lactamase (Pseudomonas aeruginosa, UniProt Q79MP6);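 further: biochemical dose-response test of metallo-beta-lactamase enzyme inhibition, read out by epi-absorbance; purified recombinant IMP-1 metallo-beta-lactamase with nitrocefin as substrate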
Chain of Beta-lactamase (Pseudomonas aeruginosa, UniProt Q79MP6) (Q79MP6 whole entry): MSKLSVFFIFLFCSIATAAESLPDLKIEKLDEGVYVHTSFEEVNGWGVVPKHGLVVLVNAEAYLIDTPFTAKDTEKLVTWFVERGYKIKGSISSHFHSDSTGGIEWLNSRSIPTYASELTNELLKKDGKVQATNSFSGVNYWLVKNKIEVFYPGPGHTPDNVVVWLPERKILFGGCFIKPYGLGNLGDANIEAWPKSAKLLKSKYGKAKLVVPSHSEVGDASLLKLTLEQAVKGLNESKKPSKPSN

[12] = biological target: Beta-lactamase (Salmonella choleraesuis (strain SC-B67), UniProt Q5J463)
Chain of Beta-lactamase (Salmonella choleraesuis (strain SC-B67), UniProt Q5J463) (Q5J463 whole entry): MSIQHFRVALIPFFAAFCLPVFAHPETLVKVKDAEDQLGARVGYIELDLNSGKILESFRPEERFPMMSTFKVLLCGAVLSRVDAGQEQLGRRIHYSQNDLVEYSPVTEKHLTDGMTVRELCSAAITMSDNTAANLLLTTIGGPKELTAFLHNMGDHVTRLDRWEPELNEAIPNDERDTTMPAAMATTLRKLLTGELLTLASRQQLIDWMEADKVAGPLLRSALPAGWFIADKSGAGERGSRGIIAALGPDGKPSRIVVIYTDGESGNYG

[13] = biological target: ORF 73 (Human herpesvirus 8, UniProt O40947); test: inhibitors of C-LANA binding to LBS DNA, dose response, biochemical, fluorescence polarization, cherry-picked samples (AID 504725); design: species or system Human gammaherpesvirus 8;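 further: fluorescence polarization of a labeled DNA duplex reporting LANA DNA binding; potency is for inhibitors that block LANA binding to the DNA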
Chain of ORF 73 (O40947 whole entry): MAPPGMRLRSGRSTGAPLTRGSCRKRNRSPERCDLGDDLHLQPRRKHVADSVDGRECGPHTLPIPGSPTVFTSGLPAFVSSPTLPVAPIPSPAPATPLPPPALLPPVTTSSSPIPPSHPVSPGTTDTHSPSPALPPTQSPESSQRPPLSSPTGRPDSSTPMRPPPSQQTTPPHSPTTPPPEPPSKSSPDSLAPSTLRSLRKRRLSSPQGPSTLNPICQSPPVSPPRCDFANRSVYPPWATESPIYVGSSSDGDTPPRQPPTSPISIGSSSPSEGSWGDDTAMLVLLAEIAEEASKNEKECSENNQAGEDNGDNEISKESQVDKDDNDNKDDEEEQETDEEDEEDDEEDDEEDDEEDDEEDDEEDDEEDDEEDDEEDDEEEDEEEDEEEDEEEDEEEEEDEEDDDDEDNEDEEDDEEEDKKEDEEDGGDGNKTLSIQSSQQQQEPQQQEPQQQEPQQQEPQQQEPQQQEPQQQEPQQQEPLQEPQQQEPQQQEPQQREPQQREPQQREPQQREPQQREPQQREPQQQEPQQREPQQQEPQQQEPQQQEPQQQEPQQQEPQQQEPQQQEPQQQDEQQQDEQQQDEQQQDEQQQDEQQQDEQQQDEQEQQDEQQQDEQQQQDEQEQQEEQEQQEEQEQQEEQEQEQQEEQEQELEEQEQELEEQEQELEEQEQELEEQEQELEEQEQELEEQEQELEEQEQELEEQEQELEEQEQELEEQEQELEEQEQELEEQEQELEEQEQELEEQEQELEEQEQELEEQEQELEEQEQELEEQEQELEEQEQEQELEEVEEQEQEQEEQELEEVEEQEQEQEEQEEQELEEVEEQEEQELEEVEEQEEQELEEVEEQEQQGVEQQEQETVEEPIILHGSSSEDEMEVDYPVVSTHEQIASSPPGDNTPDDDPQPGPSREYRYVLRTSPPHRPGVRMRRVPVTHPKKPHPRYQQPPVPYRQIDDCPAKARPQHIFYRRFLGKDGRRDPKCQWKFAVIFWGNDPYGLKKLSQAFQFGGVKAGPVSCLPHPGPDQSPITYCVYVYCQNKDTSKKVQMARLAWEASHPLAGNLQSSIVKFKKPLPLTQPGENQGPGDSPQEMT

[14] = biological target: Keap1/Nrf2 (Homo sapiens, UniProt Q14145); test: Keap1-Nrf2 protein-protein interaction inhibitors, dose response, biochemical, fluorescence polarization, cherry-picked samples (AID 588683)
Chain of Keap1/Nrf2 (Q16236 whole entry): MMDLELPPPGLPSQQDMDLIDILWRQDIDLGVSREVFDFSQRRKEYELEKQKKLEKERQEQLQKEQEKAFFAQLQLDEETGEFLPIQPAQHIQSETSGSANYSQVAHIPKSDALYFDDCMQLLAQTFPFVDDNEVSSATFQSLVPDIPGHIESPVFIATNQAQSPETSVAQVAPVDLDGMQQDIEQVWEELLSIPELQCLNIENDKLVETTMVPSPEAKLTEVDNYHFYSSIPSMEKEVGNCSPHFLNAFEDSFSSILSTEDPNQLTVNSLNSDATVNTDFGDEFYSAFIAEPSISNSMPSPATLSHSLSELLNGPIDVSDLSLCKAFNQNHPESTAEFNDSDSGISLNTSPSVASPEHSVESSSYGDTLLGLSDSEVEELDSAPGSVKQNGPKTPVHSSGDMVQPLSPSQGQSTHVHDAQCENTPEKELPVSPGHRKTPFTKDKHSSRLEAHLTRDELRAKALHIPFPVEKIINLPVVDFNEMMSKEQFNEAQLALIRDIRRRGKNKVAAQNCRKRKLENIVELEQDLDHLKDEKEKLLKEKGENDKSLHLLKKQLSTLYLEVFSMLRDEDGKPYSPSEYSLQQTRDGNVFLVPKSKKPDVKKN
Chain of Keap1/Nrf2 (Q14145 whole entry): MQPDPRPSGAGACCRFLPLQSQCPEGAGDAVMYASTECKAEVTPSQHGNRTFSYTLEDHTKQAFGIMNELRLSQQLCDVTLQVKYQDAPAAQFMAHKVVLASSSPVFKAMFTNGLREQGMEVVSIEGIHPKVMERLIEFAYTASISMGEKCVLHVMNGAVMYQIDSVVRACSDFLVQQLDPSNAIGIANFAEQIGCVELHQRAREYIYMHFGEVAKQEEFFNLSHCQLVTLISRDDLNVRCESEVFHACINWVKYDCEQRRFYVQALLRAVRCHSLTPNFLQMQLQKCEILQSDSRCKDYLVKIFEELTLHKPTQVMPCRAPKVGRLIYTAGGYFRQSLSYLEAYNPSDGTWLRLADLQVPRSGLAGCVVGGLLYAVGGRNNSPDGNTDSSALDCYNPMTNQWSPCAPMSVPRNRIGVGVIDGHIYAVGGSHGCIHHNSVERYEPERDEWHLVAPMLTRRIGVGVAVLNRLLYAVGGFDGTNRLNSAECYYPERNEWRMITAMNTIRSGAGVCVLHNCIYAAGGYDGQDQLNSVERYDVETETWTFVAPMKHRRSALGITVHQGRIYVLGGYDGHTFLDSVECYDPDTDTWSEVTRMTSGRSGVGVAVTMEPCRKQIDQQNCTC

Chain of Dual specificity protein phosphatase 3 (P51452 whole entry): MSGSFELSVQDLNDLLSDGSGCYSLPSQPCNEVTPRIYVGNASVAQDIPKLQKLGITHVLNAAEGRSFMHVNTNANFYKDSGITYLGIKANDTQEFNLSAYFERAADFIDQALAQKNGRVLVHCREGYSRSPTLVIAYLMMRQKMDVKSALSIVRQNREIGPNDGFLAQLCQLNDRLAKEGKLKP

COc1cccc2sc(Nc3nnc(-c4ccccc4)o3)nc12
IC50 [1]: 12 µM (active)

CCN(Cc1ccccc1)S(=O)(=O)c1ccc(C(=O)N(CCCN(C)C)c2nc3c(C)c(C)ccc3s2)cc1
EC50 [2]: 0.373 µM (active) | EC50 [3]: 5.55 µM (active) | AC50 [4]: 11.6 µM (active) | EC50 [5]: 78.9 µM (inactive) | EC50 [6]: 56.3 µM (inactive) | EC50 [7]: > 92.4 µM (inactive) | AC50 [8]: 18.9 µM (active)

Oc1ccccc1C1CC(c2cccs2)=NC(c2cccc(Br)c2)N1 (centres undefined)
AC50 [9]: 21.1 µM (active) | AC50 [10]: 23.9 µM (active)

Nc1ccc2c3c(cccc13)C(=O)N(c1ccccc1)C2=O
IC50 [11]: 12.7 µM (inactive) | IC50 [12]: 4.41 µM (active) | AC50 [13]: 5.56 µM (active) | AC50 [14]: 1.4 µM (active)
